System: Adult L. serricata (blowflies)
Assay: Test A: adult blowflies on blood agar containing test compound, number of dead flies scored
Assay type: in vivo
Conditions: 4 flies in test
Procedure: Adult L. serricata (blowflies): Adult flies are placed on beds of blood agar (in individual test wells; 4 flies per well) in which test compound (3-bromo-1-(3-chloro-2-pyridinyl)-N-[4-cyano-2-methyl-6-[(methylamino)carbonyl]phenyl]-1H-pyrazole-5-carboxamide) was dissolved/suspended prior to hardening of agar. Flies can take up test compound by both ingestion and contact. Assays are scored by number of dead flies at 2 hours, 4 hours, and 24 hours.

CNC(=O)c1cc(C#N)cc(C)c1NC(=O)c1cc(Br)nn1-c1ncccc1Cl [Test compound, 3-bromo-1-(3-chloro-2-pyridinyl)-N-[4-cyano-2-methyl-6-[(methylamino)-carbonyl]phenyl]-1H-pyrazole-5-carboxamide]
Number dead flies at 2 hours (Rate 1 ppm in blood agar): 0 | Number dead flies at 4 hours (Rate 1 ppm in blood agar): 0 | Number dead flies at 24 hours (Rate 1 ppm in blood agar): 0 | Number dead flies at 2 hours (Rate 10 ppm in blood agar): 0 | Number dead flies at 4 hours (Rate 10 ppm in blood agar): 0 | Number dead flies at 24 hours (Rate 10 ppm in blood agar): 1 | Number dead flies at 2 hours (Rate 25 ppm in blood agar): 0 | Number dead flies at 4 hours (Rate 25 ppm in blood agar): 0 | Number dead flies at 24 hours (Rate 25 ppm in blood agar): 2 | Number dead flies at 2 hours (Rate 50 ppm in blood agar): 0 | Number dead flies at 4 hours (Rate 50 ppm in blood agar): 0 | Number dead flies at 24 hours (Rate 50 ppm in blood agar): 3 | Number dead flies at 2 hours (Rate 100 ppm in blood agar): 0 | Number dead flies at 4 hours (Rate 100 ppm in blood agar): 0 | Number dead flies at 24 hours (Rate 100 ppm in blood agar): 3

CCOP(=S)(OCC)Oc1nc(Cl)c(Cl)cc1Cl [Chloropyriphos]
Number dead flies at 2 hours (Rate 1 ppm in blood agar): 0 | Number dead flies at 4 hours (Rate 1 ppm in blood agar): 1 | Number dead flies at 24 hours (Rate 1 ppm in blood agar): 4 | Number dead flies at 2 hours (Rate 10 ppm in blood agar): 1 | Number dead flies at 4 hours (Rate 10 ppm in blood agar): 4 | Number dead flies at 24 hours (Rate 10 ppm in blood agar): 4 | Number dead flies at 2 hours (Rate 25 ppm in blood agar): 3 | Number dead flies at 4 hours (Rate 25 ppm in blood agar): 4 | Number dead flies at 24 hours (Rate 25 ppm in blood agar): 4 | Number dead flies at 2 hours (Rate 50 ppm in blood agar): 4 | Number dead flies at 4 hours (Rate 50 ppm in blood agar): 4 | Number dead flies at 24 hours (Rate 50 ppm in blood agar): 4 | Number dead flies at 2 hours (Rate 100 ppm in blood agar): 4 | Number dead flies at 4 hours (Rate 100 ppm in blood agar): 4 | Number dead flies at 24 hours (Rate 100 ppm in blood agar): 4
